Laboratory results reported in patent US4446148A, “Benzodioxanyl imidazoline compounds, compositions and use” (priority 1982, dated 1984).
“Also recorded” adds a separate entry of the source. Counter-ions that a name gives are not always drawn. Like-named read-outs stand apart in the source and are kept apart here.

Tests used:
[1] = target: T1, postsynaptic α1-adrenoreceptor (Rattus norvegicus, UniProt P43140); assay: Postsynaptic α1-adrenoreceptor antagonism versus noradrenaline contractions of the rat anococcygeus muscle (isolated tissue)
T1 construct: the rat anococcygeus muscle is used to establish postsynaptic α1 -adrenoreceptor activity; from tissue; host or cells: rat anococcygeus muscle
T1 sequence (P43140 1-466): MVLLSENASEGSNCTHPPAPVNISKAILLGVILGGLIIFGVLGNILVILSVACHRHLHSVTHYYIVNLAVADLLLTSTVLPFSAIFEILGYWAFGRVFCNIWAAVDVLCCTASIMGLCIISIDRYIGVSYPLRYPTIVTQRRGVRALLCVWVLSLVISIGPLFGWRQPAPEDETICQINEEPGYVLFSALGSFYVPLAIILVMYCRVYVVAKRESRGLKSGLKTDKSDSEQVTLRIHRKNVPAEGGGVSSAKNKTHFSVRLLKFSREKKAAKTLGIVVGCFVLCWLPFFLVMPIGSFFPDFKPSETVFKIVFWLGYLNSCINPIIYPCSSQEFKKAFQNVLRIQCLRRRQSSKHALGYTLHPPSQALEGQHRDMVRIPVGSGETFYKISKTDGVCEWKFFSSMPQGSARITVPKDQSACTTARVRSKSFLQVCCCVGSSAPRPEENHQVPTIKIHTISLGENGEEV
Excerpt: (§1) This in vitro model is particularly useful as an initial screen for studying presynaptic activity in isolation since the physiological nature of the vas deferens tissue is such that the postsynaptic receptors located therein are particularly inaccessible to exogenous agents. In consequence an alternative tissue, the rat anococcygeus muscle is used to establish postsynaptic α1 -adrenoreceptor activity. Antagonism of noradrenaline contractions is used to determine pA2 values at postsynaptic α1 -adrenoreceptors. The ratio of presynaptic α2 -adrenoreceptor antagonism (versus clonidine on the rat vas deferens) to postsynaptic α1 -adrenoreceptor antagonism (versus noradrenaline contractions on the rat anococcygeus muscle) is used to assess adrenoreceptor selectivity.
(§2) The results are the mean of a minimum of 5 experiments.

[2] = system: presynaptic α2-adrenoreceptors; assay: Presynaptic α2-adrenoreceptor antagonism in the pithed rat: reversal of clonidine block on vas deferens, intravenous; format: in vivo; conditions: for i.v. dose of antagonist causing 50% reversal of clonidine block on vas deferens: cumulative i.v. dosing, clonidine 100 μg/kg i.v., mean of minimum 4 rats
Method: This test model extends the evaluation of presynaptic α2 -adrenoreceptor antagonism versus clonidine on the rat vas deferens to the in vivo situation. Blood pressure and stimulation induced contractions of the vas deferens were monitored in pithed rats using the method of Brown, J., Doxey, J. C., Handley, S. and Virdee, N., Recent Advances in the Pharmacology of Adrenoceptors, Elsevier North Holland, 1978. Clonidine (100 μg/kg. i.v.) causes a prolonged pressor response and a prolonged inhibition of vas deferens contractions. The test drugs were injected intravenously in a cumulative dosing schedule and their abilities to reverse the inhibition of hypogastric nerve stimulation reflected their presynaptic antagonism.
The results are the mean of a minimum of 4 rats.

[3] = target: T2, presynaptic α2-adrenoreceptor (Rattus norvegicus, UniProt P22909); assay: Presynaptic α2-adrenoreceptor antagonism versus clonidine on the stimulated rat vas deferens (isolated tissue); conditions: for Pre/postsynaptic ratio: presynaptic α2 (vs clonidine, vas deferens) to postsynaptic α1 (vs noradrenaline, anococcygeus) antagonism
T2 construct: on the rat vas deferens stimulated at a frequency of 0.1 Hz; from tissue; host or cells: rat vas deferens
T2 sequence (P22909 1-465): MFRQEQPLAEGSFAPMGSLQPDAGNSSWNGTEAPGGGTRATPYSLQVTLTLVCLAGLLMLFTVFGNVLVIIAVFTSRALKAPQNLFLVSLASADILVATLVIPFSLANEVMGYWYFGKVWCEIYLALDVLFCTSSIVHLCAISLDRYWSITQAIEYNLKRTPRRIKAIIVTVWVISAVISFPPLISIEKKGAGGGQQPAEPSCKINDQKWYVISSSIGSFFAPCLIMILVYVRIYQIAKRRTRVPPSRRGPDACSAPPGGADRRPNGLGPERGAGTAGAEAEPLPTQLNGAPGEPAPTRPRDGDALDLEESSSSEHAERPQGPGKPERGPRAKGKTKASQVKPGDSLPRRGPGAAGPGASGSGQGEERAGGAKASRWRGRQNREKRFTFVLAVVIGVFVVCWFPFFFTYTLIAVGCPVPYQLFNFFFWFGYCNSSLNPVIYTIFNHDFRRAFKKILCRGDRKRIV
Excerpt: as §1, §2

α2-binding sites [4] = target: T3, α2-binding sites (Rattus norvegicus, UniProt P22909); assay: Radioligand competition binding at α2-binding sites labelled by [^3 H]-RX781094 in rat cerebral cortex; conditions: for activity of the enantiomers (in words): from Table 4 / testing results; for Ki: α2 Ki vs [^3 H]-RX 781094, rat cerebral cortex, 1 nM radioligand, 15 min, 25° C.
T3 construct: A crude synaptosomal P2 fraction was prepared; from tissue; host or cells: cerebral cortex including hippocampus, male Sprague-Dawley rats, crude synaptosomal P2 fraction
T3 sequence (P22909 1-465): T2 sequence (P22909 1-465)
Excerpt: The pharmacological activity of the racemic compound (RS) of Example 1 (in formula I R^1 =methyl) has been compared with the activities of the R and S enantiomers.
(§3) Male Sprague-Dawley rats, 250-300 g, were killed by decapitation, the brains quickly removed and the cerebral cortex dissected free from striatal tissue but including the hippocampus. Tissue was homogenized in ice-cold buffered sucrose (20 vols w/v 0.3 M sucrose in Tris/HCl buffer, 0.05 M, pH 7.4) using a Potter-type glass-teflon homogenizer. A crude synaptosomal P2 fraction was prepared and the washed P2 -pellet was resuspended in a physiological salt solution to give a final protein concentration of about 1 mg/ml. The physiological salt solution had the following composition (nM): 118 NaCl, 4.8 KCl, 1.3 CaCl2, 1.2 KH2 PO, 1.2 MgSO4, 25 NaHCO3 and was equilibrated with 95% O2 and 5% CO2.
Samples were incubated for 15 min at 25° C. and then rapidly filtered under vacuum through Whatman GFB filters and washed. Filters were transferred to scintillation vials and NE 260 miscellar scintillation fluid (3.5 ml) was added prior to scintillation counting (at 40% efficiency). Competition binding curves including up to eight concentrations of test antagonist were constructed and IC50 values determined. Hill plots made from each set of data were linear with Hill coefficients (nh) […] to 1.0 and inhibitor constants (Ki values) were derived from IC50 values.

α2-binding sites [5] = target: T3, α2-binding sites; assay: Saturation binding of [^3 H]-RX 781094 in rat cerebral cortex, Scatchard analysis; conditions: 0.1-35 nM radioligand, n=4
Method: as §3, with “mg/ml.” for “mg/ml. The physiological salt solution had the following composition (nM): 118 NaCl, 4.8 KCl, 1.3 CaCl2, 1.2 KH2 PO, 1.2 MgSO4, 25 NaHCO3 and was equilibrated with 95% O2 and 5% CO2.”

Structure (SMILES): c1ccc2c(c1)OCC(C1=NCCN1)O2 (stereo not shown) [A, 2-[2-(1,4-benzodioxanyl)]-2-imidazoline, reference compound]
- Kb [1]: 631 nM

Structure (SMILES): CN1CCN2c3ccccc3Cc3ccccc3C2C1 (stereo not shown) [Mianserin HCl]
- i.v. dose of antagonist causing 50% reversal of clonidine block on vas deferens ([2]; pithed rat): > 4.4 mg/kg

Structure (SMILES): CC1(C2=NCCN2)COc2ccccc2O1 (stereo not shown) [B, 2-[2-(2-methyl-1,4-benzodioxanyl)]-2-imidazoline, reference compound]
- Pre/postsynaptic ratio [3]: 871

Structure (SMILES): CN1CCN2c3ccccc3Cc3ccccc3C2C1 (stereo not shown) [Mianserin]
- maximum reversal of the inhibitory effects of clonidine on hypogastric nerve stimulation ([2]; pithed rat, cumulative intravenous dose of 4.4 mg/kg): 36%

Structure (SMILES): Cc1ccc(N(CC2=NCCN2)c2cccc(O)c2)cc1 [Phentolamine mesylate]
- i.v. dose of antagonist causing 50% reversal of clonidine block on vas deferens ([2]; pithed rat): 0.12 mg/kg

Structure (SMILES): COC1(C2=NCCN2)COc2ccccc2O1 (single isomer, unassigned; (-)) [R, (-)-2-[2-(2-methoxy-1,4-benzodioxanyl)]-2-imidazoline]
- activity of the enantiomers (in words) (α2-binding sites [4]; listed as R isomer): almost inactive
- Ki (α2-binding sites [4]): 256 ± 59 nM

Structure (SMILES): COC(=O)[C@@H]1[C@H]2C[C@H]3c4[nH]c5ccccc5c4CCN3C[C@@H]2CC[C@@H]1O [Yohimbine HCl]
- i.v. dose of antagonist causing 50% reversal of clonidine block on vas deferens ([2]; pithed rat): 0.86 mg/kg

Structure (SMILES): COC1(C2=NCCN2)COc2ccccc2O1 (racemic) [Example 1, 2-[2-(2-Methoxy-1,4-benzodioxanyl)]-2-imidazoline]
- presynaptic α2 antagonist activity relative to the unsubstituted compound (A) ([3]; Table 2, relative to compound A): ~10 times
- presynaptic α2 antagonist activity relative to the 2-methyl compound (B) ([3]; Table 2, relative to compound B): 10 times
- presynaptic α2-adrenoreceptor antagonist potency and selectivity (in words) ([3]; compounds of Table 2): most potent presynaptic α2 -adrenoreceptor antagonist; also recorded: extremely selective for presynaptic sites
- Pre/postsynaptic ratio [3]: 776
- Kb ([3]; rat vas deferens, 0.1 Hz stimulation, vs clonidine, mean of minimum 5 experiments, read-out: Presynaptic antagonism pA2 vs Clonidine (vas deferens) (converted)): 0.0794 nM
- Ki (α2-binding sites [4]): 0.8 ± 0.05 nM
- presynaptic α2 antagonist potency in the pithed rat (in words) ([2]; compounds of Table 3): clearly the most potent presynaptic α2 -adrenoreceptor antagonist
- i.v. dose of antagonist causing 50% reversal of clonidine block on vas deferens ([2]; pithed rat): 0.002 mg/kg
- Kb ([1]; rat anococcygeus muscle, vs noradrenaline, mean of minimum 5 experiments, read-out: Postsynaptic antagonism pA2 vs Noradrenaline (anococcygeus) (converted)): 63.1 nM

Structure (SMILES): COC1(C2=NCCN2)COc2ccccc2O1 (single isomer, unassigned) [S, 2-[2-(2-methoxy-1,4-benzodioxanyl)]-2-imidazoline]
- potency of the S isomer relative to the racemate (in words) (α2-binding sites [4]; from Table 4): twice as potent as the racemate
- activity of the enantiomers (in words) (α2-binding sites [4]; listed as (+) enantiomer): all the activity resided in the (+) enantiomer
- activity of the enantiomers (in words) (α2-binding sites [4]; listed as S isomer): the active form
- Ki (α2-binding sites [4]): 0.36 ± 0.07 nM

Structure (SMILES): c1ccc2c(c1)OCC(C1=NCCN1)O2 (stereo not shown) [[^3 H]-RX 781094, 2-[2-(1,4-benzodioxanyl)]-2-imidazoline]
- Bmax (α2-binding sites [5]): 147±36 f moles/mg protein
